Measurements as given in patent US9931351B2, “Method for improving leptin resistance” (Kyoto University, priority 2013, dated 2018).

Tests used:
Assay type in all cases: in vivo
[1] = tested on: transgenic mice overexpressing leptin (LepTg) having diet-induced obesity; experiment: Test Example 4: effects to improve metabolism in LepTg mice having diet-induced obesity caused by a high fat diet; settings: LepTg mice obese after four-week high fat diet, continued high fat diet, 50 mg/kg/day intraperitoneal once a day, further four weeks; for weight of the adipose tissues: epididymal
Procedure: (§1) Eight-week old male wild type mice and transgenic mice overexpressing leptin (LepTg) (see Test Example 1) were divided into two groups, respectively (n=4 and 12), and kept for four weeks under a standard diet (SD) or a high fat diet (HFD) condition. All the mice fed with the standard diet for the four weeks were assigned to the group “vehicle (V)” and fed with the standard diet for further four weeks, and then the body weight and the food intake of the mice were measured. The mice fed with the high fat diet for the four weeks were divided into three groups: “vehicle (V)”, “Compound 57”, and “Compound 32”, and fed with the high fat diet for further four weeks, and then the body weight and the food intake of the mice were measured. The vehicle, Compound 57, and Compound 32 were administered to the mice by intraperitoneal injection once a day. The each dosage of Compounds 57 and 32 was 50 mg/kg/day. Finally the mice were sacrificed and blood, epididymal adipose tissues, and the liver were collected. The weight of the adipose tissues, the liver weight, and the plasma levels of glucose and triglyceride were measured (n=4 for each group).

[2] = tested on: wild type mice having diet-induced obesity; experiment: Test Example 4: effects to improve metabolism in wild type mice having diet-induced obesity caused by a high fat diet; settings: wild type mice obese after four-week high fat diet, continued high fat diet, 50 mg/kg/day intraperitoneal once a day, further four weeks
Procedure: as §1

[3] = tested on: transgenic mice overexpressing leptin (LepTg) under the high fat diet condition; experiment: Test Example 1: effects to improve metabolism in transgenic mice overexpressing leptin under a high fat diet condition; settings: 60% high fat diet, 50 mg/kg/day intraperitoneal once a day, four weeks; for weight of the adipose tissues: epididymal
Procedure: (§2) Eight-week old male wild type mice and transgenic mice overexpressing leptin (LepTg) (Ogawa et al. Diabetes 48: 1822-1829, 1999, prepared in Department of Endocrinology and Metabolism, Kyoto University) were divided into three treatment groups, respectively: “standard diet (SD)+vehicle (V)”, “60% high fat diet (HFD)+vehicle”, and “60% high fat diet+Compound 57”. The mice were kept for four weeks with ad libitum feeding, and the body weight and the food intake of the mice were measured. The vehicle and Compound 57 were administered to the mice by intraperitoneal injection once a day. The dosage of Compound 57 was 50 mg/kg/day. After the four weeks the mice were sacrificed and blood, epididymal adipose tissues, and the liver were collected. The weight of the adipose tissues, the liver weight, the liver triglyceride levels, and the plasma levels of glucose, insulin, total cholesterol (T-chol), triglyceride (TG), and nonesterified fatty acid (NEFA) were measured (n=5 for each group). The equivalent dosage of Compound 32 was tested in a similar manner (n=5 for each group).

[4] = tested on: leptin-deficient Lepmkyo/Lepmkyo rats; experiment: Test Example 6: effects to improve metabolism in leptin-deficient Lepmkyo/Lepmkyo rats; settings: standard diet, 20 mg/kg/day intraperitoneal once a day, four weeks; for body weight: versus vehicle
Procedure: Lepmkyo/Lepmkyo rats cannot produce leptin due to a mutation in the leptin gene (Aizawa-Abe et al. Physiol Genomics 45: 786-793, 2013, prepared in Institute of Laboratory Animals, Graduate School of Medicine, Kyoto University). Eight-week old male Lepmkyo/Lepmkyo rats were divided into three treatment groups: “Vehicle (V)”, “Compound 57”, and “Compound 32”. The rats were kept for four weeks with ad libitum feeding of standard diet, and the body weight of the rats were measured. The vehicle, Compound 57, and Compound 32 were administered to the rats by intraperitoneal injection once a day. The each dosage of Compounds 57 and 32 was 20 mg/kg/day. After the four weeks the rats were sacrificed, blood was collected, and the plasma levels of glucose and insulin were measured (n =5 for each group).

[5] = tested on: wild type mice under the high fat diet condition; experiment: Test Example 1: effects to improve metabolism in wild type mice under a high fat diet condition; settings: 60% high fat diet, 50 mg/kg/day intraperitoneal once a day, four weeks; for weight of the adipose tissues: epididymal
Procedure: as §2

[6] = tested on: wild type rats under the high fat diet condition; experiment: Test Example 5: effects to improve metabolism in wild type rats under a high fat diet condition; settings: 60% high fat diet, 20 mg/kg/day intraperitoneal once a day, four weeks
Procedure: Eight-week old male wild type rats were divided into four treatment groups: “standard diet (SD)+vehicle (V)”, “60% high fat diet (HFD)+vehicle”, “60% high fat diet+Compound 57”, and “60% high fat diet+Compound 32”. The rats were kept for four weeks with ad libitum feeding, and the body weight of the rats was measured. The vehicle, Compound 32 and Compound 57 were administered to the rats by intraperitoneal injection once a day. The each dosage of Compounds 32 and 57 was 20 mg/kg/day. After the four weeks the rats were sacrificed, blood was collected, and the plasma levels of glucose and insulin were measured (n=5 for each group).

Seipin KO rats = experiment: Test Example 7: effects to improve metabolism in Seipin KO rats, a model of generalized lipodystrophy; settings: standard diet, 20 mg/kg/day intraperitoneal once a day, four weeks
Procedure: Seipin KO rats have a mutation in the Seipin gene, the causative gene of human generalized lipodystrophy, and are used as a model of generalized lipodystrophy. The rats have substantially no white adipocyte and thus cannot produce leptin. The rats were prepared in Department of Endocrinology and Metabolism, Kyoto University. Eight-week old male Seipin KO rats were divided into three treatment groups: “Vehicle (V)”, “Compound 57”, and “Compound 32”. The rats were kept for four weeks with ad libitum feeding of standard diet, and the body weight of the rats were measured. The vehicle, Compound 57, and Compound 32 were administered to the rats by intraperitoneal injection once a day. The each dosage of Compounds 57 and 32 was 20 mg/kg/day. After the four weeks the rats were sacrificed, blood was collected, and the plasma levels of glucose and insulin were measured (n=3 for each group).

SMILES | blood level of glucose [1] | blood level of triglyceride [1] | body weight [1] | food intake [1] | weight of the adipose tissues [1] | blood level of glucose [2] | blood level of triglyceride [2] | body weight [2] | body weight [3] | food intake [3] | liver triglyceride levels [3] | liver weight [3] | plasma insulin levels [3] | plasma level of nonesterified fatty acid [3] | plasma level of total cholesterol [3] | plasma level of triglyceride [3] | random plasma glucose levels [3] | weight of the adipose tissues [3] | plasma insulin [4] | random plasma glucose levels [4] | further results
Nc1c(/N=N/c2ccc(-c3cccc4c3sc3ccccc34)nc2)cc(S(=O)(=O)[O-])c2ccccc12.[Na+] [Compound 57, 4-amino-3-(6-dibenzothiophene-4-ylpyridine-3-ylazo)naphthalene-1-sulfonic acid sodium salt] | decreased | decreased | decreased | significantly decreased | significantly decreased | decreased | decreased | decreased | did not increase | did not increase | did not increase | did not increase | did not increase | did not increase | did not increase | did not increase | did not increase | did not increase | did not change | did not change | liver weight [1]: decreased; food intake [2]: significantly decreased; body weight [4]: No difference; body weight [5]: did not increase; food intake [5]: did not increase; liver triglyceride levels [5]: did not increase; liver weight [5]: did not increase; plasma insulin levels [5]: did not increase; plasma level of nonesterified fatty acid [5]: did not increase; plasma level of total cholesterol [5]: did not increase; plasma level of triglyceride [5]: did not increase; random plasma glucose levels [5]: did not increase; weight of the adipose tissues [5]: did not increase; plasma insulin levels [6]: did not increase; random plasma glucose levels [6]: did not increase; weight gain caused by the high fat diet [6]: not observed; body weight (Seipin KO rats): did not change; plasma insulin (Seipin KO rats): did not change; random plasma glucose levels (Seipin KO rats): did not change
Cc1cc(F)ccc1-c1ccc(/N=N/c2cc(S(=O)(=O)[O-])c3ccccc3c2N)cn1.[Na+] [Compound 32, 4-amino-3-[6-(4-fluoro-2-methylphenyl)pyridine-3-ylazo]naphthalene-1-sulfonic acid sodium salt] | decreased | decreased | decreased | significantly decreased | significantly decreased | decreased | decreased | decreased | did not increase | did not increase | did not increase | did not increase | did not increase | did not increase | did not increase | did not increase | did not increase | did not increase | did not change | did not change | body weight [4]: No difference; body weight [5]: did not increase; food intake [5]: did not increase; liver triglyceride levels [5]: did not increase; liver weight [5]: did not increase; plasma insulin levels [5]: did not increase; plasma level of nonesterified fatty acid [5]: did not increase; plasma level of total cholesterol [5]: did not increase; plasma level of triglyceride [5]: did not increase; random plasma glucose levels [5]: did not increase; weight of the adipose tissues [5]: did not increase; plasma insulin levels [6]: did not increase; random plasma glucose levels [6]: did not increase; weight gain caused by the high fat diet [6]: not observed; body weight (Seipin KO rats): did not change; plasma insulin (Seipin KO rats): did not change; random plasma glucose levels (Seipin KO rats): did not change
